Experiments:
human HYPDH [1] = target: T1, human HYPDH (Homo sapiens (Human), UniProt Q9UF12); assay: HYPDH inhibition activity assay (inhibitor pre-incubated 5 min, reaction started with Hyp); assay type: biochemical; conditions: inhibitor pre-incubated with HYPDH for 5 min; reaction started by addition of 600 mM Hyp
Excerpt: (§1) Despite the identification of the Hyp pathway in rat and bovine kidneys and livers over 50 years ago, very little is known about human HYPDH (also known as PRODH2 and hydroxyproline oxidase, HPOX, in the literature) (Miyata et al., Proc Natl Acad Sci USA 111, 14406-14411, 2014; Efron et al., New Engl J Med 272, 1299-1309; Pelkonen et al., New Engl J Med 283, 451-456, 1970). In an effort to biochemically and structurally characterize human HYPDH, we have evaluated numerous expression constructs (>15) in Escherichia coli with N- and C-terminal truncations. […] Only the constructs containing the residues 147-515 and 156-515 were >96% loaded with FAD+ and active.
Each inhibitor was pre-incubated with HYPDH for 5 min, and the reaction started by the addition of 600 mM Hyp. A range of concentrations was tested in order to determine the IC50 value. Table 1 lists the potency of the compounds.

human HYPDH [2] = target: T1, human HYPDH; assay: Anaerobic titration of the FAD+ spectrum of recombinant HYPDH; assay type: binding
Excerpt: as §1

T1 sequence (Q9UF12 71-439 limits assumed): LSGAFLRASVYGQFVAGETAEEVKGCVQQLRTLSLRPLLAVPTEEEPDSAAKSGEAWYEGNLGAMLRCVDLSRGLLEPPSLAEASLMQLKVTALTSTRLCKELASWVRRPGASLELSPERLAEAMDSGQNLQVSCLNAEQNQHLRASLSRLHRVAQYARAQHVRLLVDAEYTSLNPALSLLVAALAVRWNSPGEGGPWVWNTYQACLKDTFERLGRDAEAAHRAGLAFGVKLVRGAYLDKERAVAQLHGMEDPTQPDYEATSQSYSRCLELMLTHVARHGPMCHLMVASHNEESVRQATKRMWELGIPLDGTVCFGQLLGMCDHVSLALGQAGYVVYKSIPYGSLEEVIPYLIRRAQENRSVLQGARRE

Row | IC50 (human HYPDH [1]) [µM] | Structure (SMILES) | Kd (human HYPDH [2]) [µM]
1 | 1500 ± 100 | O=C(O)C1CCCO1 (stereo not drawn) [Compound 2] | –
2 | – | O=C(O)C1CC(O)CN1 (stereo not drawn) [Hyp, Hydroxyproline] | 125
3 | 630 ± 10 | N[C@H]1CCC(C(=O)O)C1 (stereo partly drawn) [Compound 9] | –
4 | 380 ± 10 | O=C1CCC(C(=O)O)C1 (stereo not drawn) [Compound 10] | –
5 | 480 ± 10 | O=C(O)C[C@H]1CC[C@H](O)C1 [Compound 8] | –
6 | 370 ± 10 | O=C1CC[C@@H](C(=O)O)C1 [Compound 11] | –

Row | Structure (SMILES) | IC50 (human HYPDH [1]) [µM] | Kd (human HYPDH [2]) [µM]
7 | O=C(O)C1CC[C@H](O)C1 (stereo partly drawn) [Compound 7] | 600 ± 10 | –
8 | O=C(O)C1CC[C@@H](O)C1 (stereo partly drawn) [Compound 6] | > 10000 | –
9 | O=C(O)C1CCC(O)C1 (stereo not drawn) [Compound 5] | 2100 ± 100 | –
